Test system: E. coli
Assay: Light scattering (speckles image difference plots) test of bacterial susceptibility to an antibiotic agent in a filtered urine sample
Type: cell-based
Conditions: gentamicin 1% in test cuvette
Description: Background signal originated by particles suspended in the sample of fluid that are larger than the bacteria are excluded by mechanically filtering according to the method of the present invention. However there are sources and light scatterers other than the bacteria that can contribute a stationary background signal. Such signals are typically originated by stationary particles present within the illuminated space, impurity of the light source, defects in, and or particles contaminating, the optical components. Therefore a difference plot is computed for excluding stationary background according to a preferred embodiment of the present invention. The intensity measured in every pixel of a speckles image is subtracted from the intensity measured in the same pixel of a preceding speckles image to form a difference plot. […]
For determining the susceptibility of bacteria to an antibiotic agent, an average value of at least two averaged derivatives computed first for a test cuvette, immediately following the introduction of an antibiotic agent, are compared to an average of the same number of averaged derivatives computed for speckles images received a few minutes later, preferably after more than 5 minutes. The antibiotic agent for which the difference between these averaged derivatives is the larger is determined. […]

For gentamicin, the “concentration of non-stationary scatterers (difference plots of speckles images)” value (urine containing E. coli 10^5 CFU/ml, difference plot 30 minutes later vs immediately following introduction (FIG. 9B, 9C)) was “significant reduction” and the “values of the averaged derivative of the concentration of scatterers in time (normalised by their maximal value)” value (urine containing E. coli, a few minutes after the introduction of the antibiotics (FIG. 9D)) was “significant reduction (of a few tens of percents)”.
